In patent US20080318925A1 (ASTRAZENECA AB, priority 2007, published 2008) one finds Ki data, which are given here for 45 molecules.

The target of the assay is T1, GABAA2 receptors (α2, β3, γ3 receptor subunits transfected into Sf9 cells) (Homo sapiens, UniProt P47869+Q99928).
T1 construct: host or cells: Sf9 cells (membranes)
T1 sequence (P47869 29-451): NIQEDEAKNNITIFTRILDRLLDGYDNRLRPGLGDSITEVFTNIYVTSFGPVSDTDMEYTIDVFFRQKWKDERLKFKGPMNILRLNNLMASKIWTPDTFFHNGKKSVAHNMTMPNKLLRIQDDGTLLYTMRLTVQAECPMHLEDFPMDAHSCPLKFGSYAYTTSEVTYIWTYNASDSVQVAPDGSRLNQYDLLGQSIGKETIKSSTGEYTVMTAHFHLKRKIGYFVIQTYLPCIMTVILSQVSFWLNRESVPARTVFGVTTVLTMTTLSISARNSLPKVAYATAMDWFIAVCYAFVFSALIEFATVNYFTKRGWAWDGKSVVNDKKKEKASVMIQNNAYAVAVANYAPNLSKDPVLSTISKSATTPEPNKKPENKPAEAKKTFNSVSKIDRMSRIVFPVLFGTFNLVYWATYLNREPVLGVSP
T1 sequence (P28472 26-473 partner): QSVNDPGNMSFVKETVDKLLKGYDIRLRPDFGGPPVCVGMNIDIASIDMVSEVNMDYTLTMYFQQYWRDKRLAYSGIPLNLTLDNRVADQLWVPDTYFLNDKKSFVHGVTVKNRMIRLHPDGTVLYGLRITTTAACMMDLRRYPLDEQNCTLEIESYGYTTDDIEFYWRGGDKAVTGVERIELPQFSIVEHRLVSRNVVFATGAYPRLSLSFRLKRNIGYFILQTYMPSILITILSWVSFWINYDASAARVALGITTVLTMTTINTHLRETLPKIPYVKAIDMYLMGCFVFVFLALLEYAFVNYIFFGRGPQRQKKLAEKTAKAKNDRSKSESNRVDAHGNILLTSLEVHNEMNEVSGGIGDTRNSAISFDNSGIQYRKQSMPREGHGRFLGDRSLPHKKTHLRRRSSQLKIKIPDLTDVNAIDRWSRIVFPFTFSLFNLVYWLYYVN
T1 sequence (Q99928 18-467): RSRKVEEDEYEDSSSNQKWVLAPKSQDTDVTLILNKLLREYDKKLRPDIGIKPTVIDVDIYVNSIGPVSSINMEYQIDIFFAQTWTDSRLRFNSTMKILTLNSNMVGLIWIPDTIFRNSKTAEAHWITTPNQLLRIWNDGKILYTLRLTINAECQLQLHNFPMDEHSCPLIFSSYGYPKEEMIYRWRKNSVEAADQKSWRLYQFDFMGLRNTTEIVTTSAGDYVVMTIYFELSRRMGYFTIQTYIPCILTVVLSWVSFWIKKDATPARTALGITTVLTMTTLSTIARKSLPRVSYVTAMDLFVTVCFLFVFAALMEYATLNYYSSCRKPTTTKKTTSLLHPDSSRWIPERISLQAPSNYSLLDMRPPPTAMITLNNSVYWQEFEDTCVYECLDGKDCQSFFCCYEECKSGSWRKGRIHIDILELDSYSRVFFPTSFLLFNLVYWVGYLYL
Briefly: GABAA2 binding method ([3H]-flunitrazepam displacement). The following applies: [3H]-flunitrazepam ~2 nM, Sf9 membranes, 1 hr at 4° C. On the procedure: In some embodiments, the binding test was directed to a subtype of GABAA receptors, such as GABAA1 receptors (i.e., those containing the α1 subunit), GABAA2 receptors (i.e., those containing the α2 subunit), GABAA3 receptors (i.e., those containing the α3 subunit) and GABAA5 receptors (i.e., those containing the α5 subunit).
• Assay and Wash Buffer: 50 mM Tris-Citrate, 200 mM NaCl, pH 7.8 Compounds at 10 mM in DMSO: Put 75 μl in column 1 of compound plate.
Flumazenil, 10 mM (for NSB)
[^3H]-Flunitrazepam (Cat #NET567): Prepare 10× stock=20 nM, [F} in assay=˜2 nM
1. […] Add 5 ul of 30 uM flumazenil to wells 12 D-E for 50% control wells.
2. Spot 2 μl of compound dilutions into dry plate (Automation Program 3). Manually spot 2 μl 10 mM flumazenil into wells 12 F-H for nonspecific control.
3. Make 1:100 dilution in assay buffer (2 μl into 200 μl) and dispense 25 μl compound into assay plates (Automation Program 4).
4. Dispense 200 μl membranes into assay plate (Automation Program 5).
5. Add 25 μl [^3H]-Flunitrazepam (Automation Program 6). Incubate for 1 hr at 4° C.
6. Collect membranes on a cell harvester onto GF/B filter plates (pre-wet with dH2O and wash 5× 400 μl/well, with cold assay buffer. (First 3 washes are considered hot; last two are cold.)
7. Dry plates for 2-3 hours at RT.
8. Add 40 μl Microscint 40/well (Automation Program 7); seal plates. Count on a TopCount.
Data is analyzed by calculating percent of control, IC50, and Ki in an XLfit template. The following formula is used in the templates: […]

`CCCNC(=O)c1nnc2c(-c3cc(F)ccc3OC)cccc2c1N` yielded a Ki of 10.5 nM. This counts as double-digit nanomolar.

Molecule `CCCNC(=O)c1nnc2c(-c3ccc(Cl)cc3)cccc2c1N` came in with a Ki of 37.2 nM.

With `CCCNC(=O)c1nnc2c(-c3ccc(OC)cc3C(F)(F)F)c(F)ccc2c1N`, the Ki was 0.624 nM.

Turning to `CCNC(=O)c1nnc2c(-c3cnccc3OC)cccc2c1N`, the Ki is 4.36 nM.

As for `CCCNC(=O)c1nnc2c(-c3cccc(S(C)(=O)=O)c3)cccc2c1N`, the affinity, expressed as Ki, was 10.4 nM.

The molecule `CCCNC(=O)c1nnc2c(-c3ccc(OC)c(OC)c3OC)cccc2c1N` gave a Ki of 6.75 nM. Against the preceding molecule, the Ki is about 1.5-fold lower.

For `CCCNC(=O)c1nnc2c(-c3ccc(OC)cc3C(F)(F)F)cccc2c1N`, the Ki turned out to be 2.42 nM.

Turning to `CCCNC(=O)c1nnc2c(-c3ccc(OC)nc3OC)cccc2c1N`, the Ki came to 0.56 nM.

As to `CCCNC(=O)c1nnc2c(-c3cc(Cl)ccc3OC)c(F)ccc2c1N`, the Ki was determined as 0.327 nM.

Consider `CCCNC(=O)c1nnc2c(-c3cc(Cl)cc(Cl)c3)cccc2c1N`, for which affinity was put at a Ki of 22 nM.

In turn, `CCCNC(=O)c1nnc2c(-c3ccccn3)cccc2c1N` registered a Ki of 19.4 nM.

Regarding `CCCNC(=O)c1nnc2c(-c3cc(C)ccc3C)c(Cl)ccc2c1N`, the affinity corresponds to a Ki of 11.2 nM.

On to `CCCNC(=O)c1nnc2c(-c3cccc(Cl)c3Cl)cccc2c1N`, for which affinity was put at a Ki of 1.82 nM.

In turn, `CCCNC(=O)c1nnc2c(-c3ccccc3)c(F)ccc2c1N` gave a Ki of 1 nM.

As for `CCCNC(=O)c1nnc2c(-c3ccc(C)cc3)cccc2c1N`, affinity was put at a Ki of 29 nM.

The molecule `CCCNC(=O)c1nnc2c(-c3cnc(OC)c(Cl)c3)cccc2c1N` registered a Ki of 25.4 nM.

`CNC(=O)c1nnc2c(-c3cnc(OC)nc3OC)cccc2c1N` showed a Ki of 514 nM. Against the preceding molecule, the Ki is about 20-fold higher.

Turning to `CCCNC(=O)c1nnc2c(-c3cccc(OC)c3)cccc2c1N`, the Ki is 4.34 nM. This Ki is about 120-fold lower than that of the molecule before.

In the case of `CCCCNC(=O)c1nnc2c(-c3cc(C)ccc3OC)cccc2c1N`, the Ki was 13.3 nM.

In turn, `CCCNC(=O)c1nnc2c(-c3ccc(OC)c(F)c3)c(F)ccc2c1N` showed a Ki of 2.88 nM.

Consider `Nc1c(C(=O)NCC2CC2)nnc2c(-c3ccccc3)cccc12`, for which the affinity corresponds to a Ki of 18.6 nM.

`CCCNC(=O)c1nnc2c(-c3ccc(F)cc3OC)c(F)ccc2c1N`: affinity was put at a Ki of 0.565 nM.

As for `CCCNC(=O)c1nnc2c(-c3cncc(OC)c3)cccc2c1N`, the Ki amounted to 4.21 nM.

In turn, `CCCNC(=O)c1nnc2c(-c3ccc(OC)c(OC)c3OC)c(F)ccc2c1N` returned a Ki of 0.6 nM.

`CCCNC(=O)c1nnc2c(-c3ccncc3)cccc2c1N` displayed a Ki of 1.67 nM. Against the preceding molecule, the Ki is about 2.8-fold higher.

`CCCNC(=O)c1nnc2c(-c3cc(OC)ccc3F)cccc2c1N` returned a Ki of 1.73 nM.

Regarding `CCCNC(=O)c1nnc2c(-c3cncc(C(=O)N4CCC4)c3)cccc2c1N`, the affinity corresponds to a Ki of 2.34 nM.

`CCNC(=O)c1nnc2c(-c3ccc(OC)cc3OC)cccc2c1N` registered a Ki of 4.54 nM.

With `CCCNC(=O)c1nnc2c(-c3ccc(C)nc3)cccc2c1N`, the Ki was determined as 4.11 nM.

Turning to `CNC(=O)c1nnc2c(-c3cc(C)ccc3OC)cccc2c1N`, the Ki turned out to be 35.8 nM. Against the preceding molecule, the Ki is about 8.7-fold higher.

Take `CCCNC(=O)c1nnc2c(-c3cc(Cl)ccc3Cl)cccc2c1N`: affinity was put at a Ki of 0.71 nM. This Ki lies about 50-fold lower than the previous one.

For `CCCNC(=O)c1nnc2c(-c3cccc(OC(F)(F)F)c3)cccc2c1N`, the affinity corresponds to a Ki of 47.8 nM.

`CCCNC(=O)c1nnc2c(-c3ccc(F)cc3OC)cccc2c1N` yielded a Ki of 4.34 nM.

Molecule `CCCNC(=O)c1nnc2c(-c3ccccc3)c(Cl)ccc2c1N` showed a Ki of 5.82 nM.

As for `CCCNC(=O)c1nnc2c(-c3cc(Cl)ccc3Cl)c(F)ccc2c1N`, the Ki came to 1.34 nM.

In turn, `CCCNC(=O)c1nnc2c(-c3cc(OC)c(OC)c(OC)c3)cccc2c1N` showed a Ki of 56.5 nM.

`CCCNC(=O)c1nnc2c(-c3ccc(F)cc3)cccc2c1N` showed a Ki of 9.58 nM.

`CCCNC(=O)c1nnc2c(-c3ccc(OC)cc3F)cccc2c1N` showed a Ki of 4.17 nM.

With `CCCNC(=O)c1nnc2c(-c3cccnc3F)cccc2c1N`, the Ki amounted to 1.13 nM.

As for `CCCNC(=O)c1nnc2c(-c3ccc(Cl)cc3)c(F)ccc2c1N`, the Ki came out at 8.72 nM.

In the case of `CCCNC(=O)c1nnc2c(-c3cnc(OC)c(F)c3)cccc2c1N`, the affinity, expressed as Ki, was 22.1 nM.

The molecule `CCCNC(=O)c1nnc2c(-c3cc(OC)cc(OC)c3)c(F)ccc2c1N` had a Ki of 0.552 nM. Compared with the last molecule, the Ki is about 40-fold lower.

Molecule `CCCNC(=O)c1nnc2c(-c3ccsc3)cccc2c1N` gave a Ki of 18.6 nM.

As for `COc1ccc(-c2cccc3c(N)c(C(=O)NC4CC4)nnc23)c(OC)c1`, the affinity, expressed as Ki, was 2.07 nM.

The molecule `CCCNC(=O)c1nnc2c(-c3cnc(OC)nc3OC)c(Cl)ccc2c1N` registered a Ki of 2.73 nM. The Ki values of the last two molecules are within 1.5-fold of each other.

As a reminder, the Ki is a measure of affinity in units of concentration, obtained from inhibition or displacement. Low readings indicate higher affinity, high ones lower affinity.
